The target in test [1] is T1, human ADRA2C receptor (Homo sapiens (Human), UniProt P18825). The test can be described thus: In vitro activity assay, inhibition of recombinant ADRA2C (CHO-K1 cells coexpressing Gαq and aequorin, noradrenaline-induced bioluminescence). Format: cell-based. As to conditions: inhibition of agonist (noradrenaline)-induced bioluminescence signal; some values are means of multiple determinations; read-out: ARα2C IC50. The method, then: B-2. In Vitro Activity Assay to Determine the Inhibition of Recombinant ADRA2C
The human ADRA2C receptor belongs to the G protein (guanine-dependent protein)-coupled receptors, the main function of which is the transduction of signals into the interior of the cell.
The investigations of the inhibition of the recombinant human ADRA2C receptors were carried out with stably transfected CHO-K1 cells coexpressing the Gαq protein and the calcium-sensitive photoprotein aequorin. In this recombinant system, binding of the agonists noradrenaline to the ADRA2C receptor leads, after activation of a signal cascade, to calcium release from intracellular stores, which is detected by the intracellular calcium sensor aequorin as a bioluminescent signal. The method is described in detail in the reference below. [Wunder F., Kalthof B., Muller T., Hueser J. Functional Cell-Based Assays in Microliter Volumes for Ultra-High Throughput Screening. Combinatorial Chemistry & High Throughput Screening, Volume 11, Number 7, 2008, pp. 495-504(10). doi.org/10.2174/138620708785204054]
The activity of the test substances was determined via their ability to inhibit the agonist-induced increase of the bioluminescence signal. The concentration which can block half of this signal increase is referred to as IC50. The IC50 value is calculated using the 4 parameter logistic function (Hill function):
Top=upper threshold, Bottom=lower threshold, Slope=slope, IC50=turning point

For test [2], the target named is T1, human ADRA2C receptor. Put plainly: In vitro radioligand binding study, competition assay with [3H] rauwolscine (Eurofins Panlabs). As to conditions: for Ki: calculated from IC50 and Kd with the Cheng Prusoff equation, [3H] rauwolscine competition, read-out: hARα2C Ki; for IC50: displacement of 0.5 nM [3H] rauwolscine, homogenates of CHO-K1 cells expressing human ADRA2C, 1 h, 4° C., read-out: hARα2C IC50. The method, then:
B-1 In Vitro Radioligand Binding Studies for Determination of the Dissociation Constants Ki at the Human Adrenoreceptor ADRA2C (Eurojins Panlabs Discovery Services, Taiwan, Ltd)
A competition assay based on [^3H] rauwolscine as radioliganden was used to determine the binding affinity of the test substances at the human ADRA2C receptor.
To configure the competition assay, the equilibrium dissociation constant Kd of the radioligand [^3H] rauwolscine was determined in a saturation experiment. To this end, homogenates of CHO-K1 cells recombinantly expressing the human ADRA2C receptor were incubated with increasing concentrations of the radiotracers for 1 h at 4° C. in binding buffer (50 mM Tris-HCl, 1 mM EDTA, pH 7.4). Unspecific binding was determined by addition of an excess of the not radioactively labelled ligand prazosin (10 μM). The radioactivity was determined in a scintiation counter.
The competition experiments were carried out in the presence of 0.5 nM [^3H] rauwolscine and increasing concentrations of the test substances to be characterized under the conditions described above.
From the IC50 value measured in the competition experiment and the Kd value from the saturation experiment, the equilibrium constant Ki of the inhibitor, which describes the affinity of the test substances to the receptor, was calculated using the Cheng Prusoff equation [Cheng Y, Prusoff W H. Relationship between the inhibition constant (Ki) and the concentration of inhibitor which causes 50 percent inhibition (ISO) of an enzymatic reaction. […] PMID 4202581 PMID: 4202581].

Structures are written as SMILES.

By IC50 is commonly meant the concentration at which inhibition is half-maximal. Broadly, the Ki is the equilibrium dissociation constant of an inhibitor or competing ligand from its target.

T1 sequence (P18825 whole entry): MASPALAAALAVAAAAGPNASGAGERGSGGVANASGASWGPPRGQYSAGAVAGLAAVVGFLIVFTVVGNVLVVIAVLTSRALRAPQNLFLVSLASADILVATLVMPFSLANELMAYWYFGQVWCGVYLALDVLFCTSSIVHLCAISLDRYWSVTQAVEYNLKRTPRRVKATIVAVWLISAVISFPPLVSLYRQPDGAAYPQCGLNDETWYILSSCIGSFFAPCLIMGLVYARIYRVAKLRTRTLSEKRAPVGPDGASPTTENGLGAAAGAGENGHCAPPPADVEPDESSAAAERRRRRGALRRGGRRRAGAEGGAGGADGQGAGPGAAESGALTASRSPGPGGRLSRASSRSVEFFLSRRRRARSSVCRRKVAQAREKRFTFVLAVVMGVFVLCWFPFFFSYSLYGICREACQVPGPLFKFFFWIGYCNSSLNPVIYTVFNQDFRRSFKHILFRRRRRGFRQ

Consider `C[C@@H]1CCCN(C2CCN(c3nc(C(=O)NCc4ncc(F)cc4F)co3)CC2F)C1` (single isomer, unassigned) [Example 159], for which the IC50 on human ADRA2C receptor [1] was determined as 25 nM.
On to `C[C@@H]1CCCN(C2CCN(c3nc(C(=O)NCc4ncc(F)cc4F)cs3)CC2F)C1` (single isomer, unassigned) [Example 158], for which the IC50 at human ADRA2C receptor [1] is 98 nM.
As for `CC(C)(C)C1CCCN(C2CCN(c3ncc(C(=O)NCc4ncc(F)cc4F)s3)CC2)C1` (racemic) [Example 149, 2-(3-tert-butyl[1,4′-bipiperidin]-1′-yl)-N-[(3,5-difluoropyridin-2-yl)methyl]-1,3-thiazole-5-carboxamide], the IC50 at human ADRA2C receptor [1] came to 35 nM.
On to `C[C@@H]1CCCN(C2CCN(c3nnc(C(=O)NCc4ncc(F)cc4F)s3)CC2)C1` [Example 152, N-[(3,5-difluoropyridin-2-yl)methyl]-5-[(3R)-3-methyl[1,4′-bipiperidin]-1′-yl]-1,3,4-thiadiazole-2-carboxamide], for which the IC50 at human ADRA2C receptor [1] came out at 660 nM.
Consider `CCC1CN(c2ncc(C(=O)NCc3ncc(F)cc3F)s2)CCC1N1CCC[C@@H](C)C1` (single isomer, unassigned) [Example 163], for which the IC50 on human ADRA2C receptor [1] came out at 480 nM.
For `O=C(NCc1ncc(F)cc1F)c1cnc(N2CCC(N3CCC[C@@H](C(F)(F)F)C3)CC2)s1` [Example 43, N-[(3,5-Difluoropyridin-2-yl)methyl]-2-[(3R)-3-(trifluoromethyl)[1,4′-bipiperidin]-1′-yl]-1,3-thiazole-5-carboxamide], on human ADRA2C receptor [1], the IC50 is 261 nM.
Consider `CCOC1CCCN(C2CCN(c3ncc(C(=O)NCc4ncc(F)cc4F)s3)CC2)C1` (single isomer, unassigned) [Example 124, ent-N-[(3,5-Difluoropyridin-2-yl)methyl]-2-(3-ethoxy[1,4′-bipiperidin]-1′-yl)-1,3-thiazole-5-carboxamide], for which, on human ADRA2C receptor [2], the Ki was 2.3 nM and the IC50 is 5.1 nM.
For the compound `Cc1ccc([C@@H](C)NC(=O)c2cnc(N3CCC(N4CCC[C@@H](C)C4)CC3)s2)cc1` (relative stereo) [Example 95, rel-2-[(3R)-3-methyl[1,4′-bipiperidin]-1′-yl]-N-[(1R)-1-(4-methylphenyl)ethyl]-1,3-thiazole-5-carboxamide], the IC50 at human ADRA2C receptor [1] amounted to 800 nM.
In the case of `O=C(NCc1ncc(F)cc1F)c1cnc(N2CCC(N3CCCC(C4CC4)C3)CC2)s1` (racemic) [Example 137, 2-(3-cyclopropyl[1,4′-bipiperidin]-1′-yl)-N-[(3,5-difluoropyridin-2-yl)methyl]-1,3-thiazole-5-carboxamide], the IC50 at human ADRA2C receptor [1] amounted to 19 nM.
With `C[C@@H]1CCCN(C2CCN(c3ncc(C(=O)NCc4cccc(C(F)(F)F)n4)s3)CC2)C1` [Example 32], at human ADRA2C receptor [1], the IC50 stood at 640 nM.
Turning to `C[C@@H]1CCCN(C2CCN(c3ncc(C(=O)NC[C@H](C)c4ccccc4)s3)CC2)C1` (relative stereo) [Example 83, rel-2-[(3R)-3-methyl[1,4′-bipiperidin]-1′-yl]-N-[(2R)-2-phenylpropyl]-1,3-thiazole-5-carboxamide], the IC50 on human ADRA2C receptor [1] was determined as 98.1 nM.
As for `C[C@@H]1CCCN(C2CCN(c3ncc(C(=O)NCc4ncc(F)cc4F)s3)CC2)C1` [Example 1, N-[(3,5-Difluoropyridin-2-yl)methyl]-2-[(3R)-3-methyl[1,4′-bipiperidin]-1′-yl]-1,3-thiazole-5-carboxamide], on human ADRA2C receptor [2], the Ki was 24 nM and the IC50 came to 54 nM.
In the case of `CCC1CN(c2ncc(C(=O)NCc3ncc(F)cc3F)s2)CCC1N1CCC[C@@H](C)C1` (single isomer, unassigned) [Example 162], at human ADRA2C receptor [1], the IC50 was found to be 810 nM.
With `CC(NC(=O)c1cnc(N2CCC(N3CCC[C@@H](C)C3)CC2)s1)c1cc(F)ccc1F` (single isomer, unassigned) [Example 46], the IC50 at human ADRA2C receptor [1] is 8.3 nM.
Take `C[C@@H]1CCCN(C2CCN(c3nc(C(=O)NCc4ncc(F)cc4F)co3)CC2F)C1` (single isomer, unassigned) [Example 160]: the IC50 on human ADRA2C receptor [1] came to 435 nM.
`O=C(NCc1ncc(F)cc1F)c1cnc(N2CCC(N3CCC[C@@H](CF)C3)CC2)s1` [Example 41, N-[(3,5-Difluoropyridin-2-yl)methyl]-2-[(3R)-3-(fluoromethyl)[1,4′-bipiperidin]-1′-yl]-1,3-thiazole-5-carboxamide]: on human ADRA2C receptor [2], the Ki was 56 nM and the IC50 amounted to 130 nM.
Consider `O=C(NCc1ncc(F)cc1F)c1cnc(N2CCC(N3CCCC(C4CCC4)C3)CC2)s1` (racemic) [Example 138, 2-(3-cyclobutyl[1,4′-bipiperidin]-1′-yl)-N-[(3,5-difluoropyridin-2-yl)methyl]-1,3-thiazole-5-carboxamide], for which, on human ADRA2C receptor [1], the IC50 stood at 6.5 nM.
On the same count and under the same terms, the result for `C[C@@H]1CCCN(C2CCN(c3nc(C(=O)NCc4ncc(F)cc4F)cs3)CC2F)C1` (single isomer, unassigned) [Example 157] reads 2.7 nM; that for `CC1CN(c2ncc(C(=O)NCc3ncc(F)cc3F)s2)CCC1N1CCC[C@@H](C)C1` (single isomer, unassigned) [Example 165], 410 nM; that for `COCCC1CCCN(C2CCN(c3ncc(C(=O)NCc4ncc(F)cc4F)s3)CC2)C1` (racemic) [Example 148, N-[(3,5-difluoropyridin-2-yl)methyl]-2-[3-(2-methoxyethyl)[1,4′-bipiperidin]-1′-yl]-1,3-thiazole-5-carboxamide], 1.3 nM.
With `CC1CN(c2ncc(C(=O)NCc3ncc(F)cc3F)s2)CCC1N1CCC[C@@H](C)C1` (single isomer, unassigned) [Example 164], at human ADRA2C receptor [1], the IC50 was 24 nM.
As to `CC(NC(=O)c1cnc(N2CCC(N3CCC[C@@H](C)C3)CC2)s1)c1cc(F)ccc1F` (stereo partly drawn) [Example 47, N-[1-(2,5-Difluorophenyl)ethyl]-2-[(3R)-3-methyl[1,4′-bipiperidin]-1′-yl]-1,3-thiazole carboxamide], the IC50 on human ADRA2C receptor [1] worked out at 25 nM.
`O=C(NCc1ncc(F)cc1F)c1cnc(N2CCC(N3CCCC4(CC4)C3)CC2)s1` [Example 64, 2-[4-(5-Azaspiro[2.5]octan-5-yl)piperidin-1-yl]-N-[(3,5-difluoropyridin-2-yl)methyl]-1,3-thiazole-5-carboxamide]: on human ADRA2C receptor [2], the Ki is 2.8 nM and the IC50 came out at 6.2 nM.
For the compound `C[C@@H]1CCCN(C2CCN(c3ncc(C(=O)N(C)Cc4cccnc4)s3)CC2)C1` [Example 90, N-methyl-2-[(3R)-3-methyl[1,4′-bipiperidin]-1′-yl]-N-(pyridin-3-ylmethyl)-1,3-thiazole-5-carboxamide], the IC50 at human ADRA2C receptor [1] worked out at 971 nM.
In the case of `CC1CC(N2CCC[C@@H](C)C2)CCN1c1ncc(C(=O)NCc2ncc(F)cc2F)s1` (single isomer, unassigned) [Example 161], the IC50 at human ADRA2C receptor [1] worked out at 233 nM.
For the compound `C[C@@H]1CCCN(C2CCN(c3ncc(C(=O)NCc4cc(Cl)ccc4F)s3)CC2F)C1` (mixture of isomers) [Example 113, diamix-N-(5-Chloro-2-fluorobenzyl)-2-[(3R)-3′-fluoro-3-methyl[1,4′-bipiperidin]-1′-yl]-1,3-thiazole-5-carboxamide], at human ADRA2C receptor [1], the IC50 stood at 0.61 nM.
With `C[C@@H]1CCCN(C2CCN(c3ncc(C(=O)Nc4ccc(F)cc4Cl)s3)CC2)C1` [Example 88, N-(2-chloro-4-fluorophenyl)-2-[(3R)-3-methyl[1,4′-bipiperidin]-1′-yl]-1,3-thiazole-5-carboxamide], on human ADRA2C receptor [1], the IC50 amounted to 489 nM.
As to `O=C(NCc1ncc(F)cc1F)c1cnc(N2CCCC(N3CCCC4(C3)CC4(F)F)CC2)s1` (stereo not drawn) [Example 156, diamix-2-[4-(1,1-Difluoro-5-azaspiro[2.5]octan-5-yl)azepan-1-yl]-N-[(3,5-difluoropyridin-2-yl)-methyl]-1,3-thiazole-5-carboxamide], at human ADRA2C receptor [1], the IC50 was 36 nM.
`O=C(NCc1ncc(F)cc1F)c1cnc(N2CCCC(N3CCCC4(CC4)C3)CC2)s1` (racemic) [Example 153, rac-2-[4-(5-Azaspiro[2.5]octan-5-yl)azepan-1-yl]-N-[(3,5-difluoropyridin-2-yl)methyl]-1,3-thiazole-5-carboxamide]: the IC50 at human ADRA2C receptor [1] amounted to 23 nM.

(Values after US12540134B2, “Inhibitors of adrenoreceptor ADRAC2” (Bayer Aktiengesellschaft, priority 2019, dated 2026).)
